Reference: patent US8765773B2, “Substituted hydroxamic acids and uses thereof” (Millennium Pharmaceuticals, Inc., priority 2010, dated 2014)

Target: T1, purified human HDAC6 (Homo sapiens, UniProt Q9UBN7)
T1 construct: purchased BPS Bioscience 5006
T1 sequence (Q9UBN7 1-1215): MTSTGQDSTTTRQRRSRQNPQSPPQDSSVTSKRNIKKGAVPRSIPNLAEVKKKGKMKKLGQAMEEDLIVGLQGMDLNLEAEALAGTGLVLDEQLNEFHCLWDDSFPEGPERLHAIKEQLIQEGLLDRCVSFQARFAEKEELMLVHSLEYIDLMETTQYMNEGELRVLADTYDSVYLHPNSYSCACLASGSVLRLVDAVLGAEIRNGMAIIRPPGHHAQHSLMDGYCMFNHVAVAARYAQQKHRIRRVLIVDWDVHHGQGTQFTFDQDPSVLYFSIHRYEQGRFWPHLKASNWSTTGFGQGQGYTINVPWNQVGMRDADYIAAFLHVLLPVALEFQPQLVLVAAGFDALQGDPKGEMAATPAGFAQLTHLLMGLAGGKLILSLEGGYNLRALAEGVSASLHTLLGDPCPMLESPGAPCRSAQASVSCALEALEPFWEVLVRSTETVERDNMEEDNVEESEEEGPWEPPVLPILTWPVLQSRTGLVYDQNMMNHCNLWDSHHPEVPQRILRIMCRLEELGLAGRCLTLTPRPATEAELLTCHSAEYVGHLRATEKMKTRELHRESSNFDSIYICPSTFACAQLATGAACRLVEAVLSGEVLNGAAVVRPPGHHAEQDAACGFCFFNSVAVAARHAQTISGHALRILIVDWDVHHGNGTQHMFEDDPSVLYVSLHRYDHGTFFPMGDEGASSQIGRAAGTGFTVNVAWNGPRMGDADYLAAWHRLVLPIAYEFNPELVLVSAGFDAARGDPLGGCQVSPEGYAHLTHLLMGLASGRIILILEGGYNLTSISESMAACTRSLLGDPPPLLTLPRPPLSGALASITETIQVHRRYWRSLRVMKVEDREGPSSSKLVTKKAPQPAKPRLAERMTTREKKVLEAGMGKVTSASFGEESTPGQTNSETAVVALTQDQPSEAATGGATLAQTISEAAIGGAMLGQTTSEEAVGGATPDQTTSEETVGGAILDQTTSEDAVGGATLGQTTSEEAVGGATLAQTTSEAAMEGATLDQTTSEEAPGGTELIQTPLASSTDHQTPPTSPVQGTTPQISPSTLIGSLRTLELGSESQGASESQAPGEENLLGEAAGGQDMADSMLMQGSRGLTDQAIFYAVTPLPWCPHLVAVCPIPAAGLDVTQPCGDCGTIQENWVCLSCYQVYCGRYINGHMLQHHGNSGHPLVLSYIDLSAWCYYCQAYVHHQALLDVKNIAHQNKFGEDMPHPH
Assay: HDAC6 Enzyme Assay
Format: biochemical
Conditions: compound concentration 0.37 μM, read-out: Percent Inhibition
Outline: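 Readout is AMC fluorescence (Ex 340 nm, Em 460 nm) after trypsin cleavage of the deacetylated Ac-Arg-Gly-Lys(Ac)-AMC product. Reaction: purified human HDAC6, compound or vehicle, 1 hour, 30° C, quenched by trichostatin A. Single-concentration percent inhibition or IC50 calculated versus DMSO-treated samples.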

SMILES	inhibition at 0.37 µM
Nc1cccc(-c2cccc(CCn3cnc4ccc(C(=O)NO)cc4c3=O)c2)c1 [Compound I-322, 3-[2-(3′-aminobiphenyl-3-yl)ethyl]-N-hydroxy-4-oxo-3,4-dihydroquinazoline-6-carboxamide]	76.1%
O=C(NO)c1ccc2ncn(CCN3CCCCC3)c(=O)c2c1 [Compound I-41, N-hydroxy-4-oxo-3-(2-piperidin-1-ylethyl)-3,4-dihydroquinazoline-6-carboxamide]	73.2%
O=C(NO)c1ccc2ccn(-c3ccccc3F)c(=O)c2c1 [Compound I-346, 2-(2-fluorophenyl)-N-hydroxy-1-oxo-1,2-dihydroisoquinoline-7-carboxamide]	87%
CC(=O)Nc1cccc(-c2cccc(Cn3cnc4ccc(C(=O)NO)cc4c3=O)c2)c1 [Compound I-60, 3-{[3′-(acetylamino)biphenyl-3-yl]methyl}-N-hydroxy-4-oxo-3,4-dihydroquinazoline-6-carboxamide]	98.4%
O=C(NO)c1ccc2ncn(CCc3cccc(-c4csc5ccccc45)c3)c(=O)c2c1 [Compound I-318, 3-{2-[3-(1-benzothien-3-yl)phenyl]ethyl}-N-hydroxy-4-oxo-3,4-dihydroquinazoline-6-carboxamide]	86.4%
CC(C)Cc1nc2cc(C(=O)NO)ccc2c(=O)[nH]1 [Compound I-402, N-hydroxy-2-isobutyl-4-oxo-3,4-dihydroquinazoline-7-carboxamide]	91.7%

The remaining lines, values ahead:

inhibition at 0.37 µM	SMILES
88.6%	O=C(NO)c1ccc2c(=O)n(Cc3ccc(C(F)(F)F)cc3)c(-c3ccc(Cl)cc3)nc2c1 [Compound I-134, 2-(4-chlorophenyl)-N-hydroxy-4-oxo-3-[4-(trifluoromethyl)benzyl]-3,4-dihydroquinazoline-7-carboxamide]
100%	O=C(NO)c1ccc2ccn(Cc3cccc(-n4cccn4)c3)c(=O)c2c1 [Compound I-82, N-hydroxy-1-oxo-2-[3-(1H-pyrazol-1-yl)benzyl]-1,2-dihydroisoquinoline-7-carboxamide]
82.1%	CCn1nccc1-c1nc2cc(C(=O)NO)ccc2c(=O)n1Cc1ccc(C(F)(F)F)cc1 [Compound I-13, 2-(1-ethyl-1H-pyrazol-5-yl)-N-hydroxy-4-oxo-3-[4-(trifluoromethyl)benzyl]-3,4-dihydroquinazoline-7-carboxamide]
65.5%	O=C(NO)c1ccc2c(=O)n(Cc3ccc(C(F)(F)F)cc3)c(CC3CCCCC3)nc2c1 [Compound I-53, 2-(cyclohexylmethyl)-N-hydroxy-4-oxo-3-[4-(trifluoromethyl)benzyl]-3,4-dihydroquinazoline-7-carboxamide]
63.7%	O=C(NO)c1ccc2ncn(CCc3cccc(-c4c(F)cccc4F)c3)c(=O)c2c1 [Compound I-347, 3-[2-(2′,6′-difluorobiphenyl-3-yl)ethyl]-N-hydroxy-4-oxo-3,4-dihydroquinazoline-6-carboxamide]

Same assay, conditions: compound concentration 0.412 μM, read-out: Percent Inhibition

SMILES	inhibition at 0.412 µM
O=C(NO)c1ccc2ccn(CCCCOc3ccccc3)c(=O)c2c1 [Compound I-62, N-hydroxy-1-oxo-2-(4-phenoxybutyl)-1,2-dihydroisoquinoline-7-carboxamide]	98%
O=C(NO)c1ccc2ccn(CCOc3ccc(-n4ccnc4)cc3)c(=O)c2c1 [Compound I-271, N-hydroxy-2-{2-[4-(1H-imidazol-1-yl)phenoxy]ethyl}-1-oxo-1,2-dihydroisoquinoline-7-carboxamide]	96.9%
O=C(NO)c1ccc2c(=O)n(-c3ccccc3)c(=O)[nH]c2c1 [Compound I-195, N-hydroxy-2,4-dioxo-3-phenyl-1,2,3,4-tetrahydroquinazoline-7-carboxamide]	16.1%
Cn1cnc2ccc(C(=O)NO)cc2c1=O [Compound I-156, N-hydroxy-3-methyl-4-oxo-3,4-dihydroquinazoline-6-carboxamide]	55.7%
COc1ccc(OCCn2ccc3ccc(C(=O)NO)cc3c2=O)cc1 [Compound I-257, N-hydroxy-2-[2-(4-methoxyphenoxy)ethyl]-1-oxo-1,2-dihydroisoquinoline-7-carboxamide]	96.8%
O=C(NO)c1ccc2ccn(CCCc3ccccc3)c(=O)c2c1 [Compound I-11, N-hydroxy-1-oxo-2-(3-phenylpropyl)-1,2-dihydroisoquinoline-7-carboxamide]	97%
Cc1ccccc1OCCCn1ccc2ccc(C(=O)NO)cc2c1=O [Compound I-38, N-hydroxy-2-[3-(2-methylphenoxy)propyl]-1-oxo-1,2-dihydroisoquinoline-7-carboxamide]	96.1%
Cc1nc(-c2ccccc2OCCn2ccc3ccc(C(=O)NO)cc3c2=O)cs1 [Compound I-27, N-hydroxy-2-{2-[2-(2-methyl-1,3-thiazol-4-yl)phenoxy]ethyl}-1-oxo-1,2-dihydroisoquinoline-7-carboxamide]	98.6%
O=C(NO)c1ccc2c(=O)n(CC3CC3)cnc2c1 [Compound I-59, 3-(cyclopropylmethyl)-N-hydroxy-4-oxo-3,4-dihydroquinazoline-7-carboxamide]	80.7%
O=C(NO)c1ccc2ncn(CCOc3ccccc3)c(=O)c2c1 [Compound I-180, N-hydroxy-4-oxo-3-(2-phenoxyethyl)-3,4-dihydroquinazoline-6-carboxamide]	97%
O=C(NO)c1ccc2ccn(CCCN3CCCCC3)c(=O)c2c1 [Compound I-170, N-hydroxy-1-oxo-2-(3-piperidin-1-ylpropyl)-1,2-dihydroisoquinoline-7-carboxamide]	67.1%
O=C(NO)c1ccc2c(=O)[nH]c(COc3ccccc3Cl)nc2c1 [Compound I-144, 2-[(2-chlorophenoxy)methyl]-N-hydroxy-4-oxo-3,4-dihydroquinazoline-7-carboxamide]	81.2%
O=C(NO)c1ccc2ccn(CCN3CCCCC3)c(=O)c2c1 [Compound I-277, N-hydroxy-1-oxo-2-(2-piperidin-1-ylethyl)-1,2-dihydroisoquinoline-7-carboxamide]	71.2%

Further lines, results first:

inhibition at 0.412 µM	SMILES
94.9%	O=C(NO)c1ccc2ccn(Cc3c(Cl)cccc3Cl)c(=O)c2c1 [Compound I-7, 2-(2,6-dichlorobenzyl)-N-hydroxy-1-oxo-1,2-dihydroisoquinoline-7-carboxamide]
95.9%	O=C(NO)c1ccc2ccn(Cc3ccc(Cl)c(Cl)c3)c(=O)c2c1 [Compound I-1, 2-(3,4-dichlorobenzyl)-N-hydroxy-1-oxo-1,2-dihydroisoquinoline-7-carboxamide]
36.1%	O=C(NO)c1ccc2c(=O)n(Cc3ccccc3)c(=O)[nH]c2c1 [Compound I-194, 3-benzyl-N-hydroxy-2,4-dioxo-1,2,3,4-tetrahydroquinazoline-7-carboxamide]
95.9%	O=C(NO)c1ccc2ccn(Cc3cccc(F)c3)c(=O)c2c1 [Compound I-109, 2-(3-fluorobenzyl)-N-hydroxy-1-oxo-1,2-dihydroisoquinoline-7-carboxamide]
90.2%	O=C(NO)c1ccc2ncn(Cc3ccc(F)cc3)c(=O)c2c1 [Compound I-115, 3-(4-fluorobenzyl)-N-hydroxy-4-oxo-3,4-dihydroquinazoline-6-carboxamide]
90%	O=C(NO)c1ccc2ccn(CCCOc3ccccc3C(F)(F)F)c(=O)c2c1 [Compound I-52, N-hydroxy-1-oxo-2-{3-[2-(trifluoromethyl)phenoxy]propyl}-1,2-dihydroisoquinoline-7-carboxamide]
61.5%	CN(C)c1nc2cc(C(=O)NO)ccc2c(=O)n1-c1ccccc1 [Compound I-192, 2-(dimethylamino)-N-hydroxy-4-oxo-3-phenyl-3,4-dihydroquinazoline-7-carboxamide]
85.2%	Cc1cccc(OCc2nc3cc(C(=O)NO)ccc3c(=O)[nH]2)c1 [Compound I-107, N-hydroxy-2-[(3-methylphenoxy)methyl]-4-oxo-3,4-dihydroquinazoline-7-carboxamide]
